The nature of series [1]: Assay (IV) determination of solubility. It counts as physicochemical. The method, then:
Assay (IV)—Determination of Solubility
The polypeptide was dissolved in water at −500 nmol/ml and mixed 1:1 with a series of buffers (100 mM glycylglycine pH 3.0, 100 mM glycylglycine pH 4.0, 100 mM glycylglycine pH 5.0, 100 mM bistrispropane pH 6.0, 100 mM bistrispropane pH 6.5, 100 mM bistrispropane pH 7.0, 100 mM bistrispropane pH 7.5, 100 mM bistrispropane pH 8.0). After 18 hours at room temperature the samples were centrifuged and the polypeptide concentration determined by HPLC.

The target of series [2] is T1, human calcitonin receptor (Homo sapiens, UniProt P30988).
T1 construct: expressed in transfected cells; CRE-luciferase reporter
T1 sequence (P30988 25-474): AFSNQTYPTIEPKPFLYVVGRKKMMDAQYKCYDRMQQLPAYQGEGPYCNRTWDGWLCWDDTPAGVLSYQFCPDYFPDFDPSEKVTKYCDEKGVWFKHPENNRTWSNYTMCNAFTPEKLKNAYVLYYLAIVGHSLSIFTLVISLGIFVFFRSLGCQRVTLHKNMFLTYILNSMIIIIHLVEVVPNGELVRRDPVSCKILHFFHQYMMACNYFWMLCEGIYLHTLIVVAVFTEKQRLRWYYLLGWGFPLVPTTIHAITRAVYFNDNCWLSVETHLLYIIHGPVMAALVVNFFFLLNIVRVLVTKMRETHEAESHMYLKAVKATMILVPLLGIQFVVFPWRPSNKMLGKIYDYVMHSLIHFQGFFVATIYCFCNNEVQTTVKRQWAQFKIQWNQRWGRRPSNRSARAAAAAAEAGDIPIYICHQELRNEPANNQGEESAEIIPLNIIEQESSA
As to the kind of experiment: Assay (II)a functional assay, human calcitonin receptor (CRE luciferase reporter in BHK cells). It counts as cell-based. From the text:
1. Luciferase Assay Outline
Activation of calcitonin and amylin (coexpression of calcitonin receptor and receptor activity modifying proteins (RAMP)) receptors lead to increased intracellular concentrations of cAMP. Consequently, transcription is activated by promoters containing multiple copies of the cAMP response element (CRE). It is thus possible to measure amylin activity by the use of a CRE luciferase reporter gene introduced into BHK cells also expressing calcitonin or amylin receptors.
A BHK570 cell line was stably transfected with the human calcitonin receptor and a CRE-responsive luciferase reporter gene. The cell line was further transfected with RAMP-3, using standard methods. This turns the calcitonin receptor into an amylin 3(a) receptor. Methotrexate, Neomycin, and Hygromycin are selection markers for luciferase, the calcitonin receptor, and RAMP-3, respectively.
To perform activity assays, BHK calcitonin (a) receptor- or amylin 3(a)-receptor/CRE-luc cells were seeded in white 96 well culture plates at a density of about 20.000 cells/well. […] After incubation overnight at 37° C. and 5% CO2, the growth medium was replaced by 50 μl/well assay medium (DMEM (without phenol red), Glutamax™, 10% FBS, and 10 mM Hepes, pH 7.4). Further, 50 μl/well of standard or sample in assay buffer were added. After 3 hours incubation at 37° C. and 5% CO2, the assay medium with standard or sample were removed and replaced by 100 μl/well PBS. Further, 100 μl/well LucLite™ was added. The plates were sealed and incubated at room temperature for 30 minutes. Finally, luminescence was measured on a TopCounter (Packard) in SPC (single photon counting) mode.
(Reporter assays use an easily measured gene product as a stand-in for the process of interest.)

Series [3] deals with T2, rat amylin 3(a) receptor (rat calcitonin(a) receptor+rat RAMP3) (Rattus norvegicus, UniProt P32214+Q9JJ73).
T2 construct: expressed in transfected cells; host or cells: BHK tk'ts 13 (transient, FuGENE 6)
T2 sequence (P32214 25-479 isoform P32214-2 limits assumed): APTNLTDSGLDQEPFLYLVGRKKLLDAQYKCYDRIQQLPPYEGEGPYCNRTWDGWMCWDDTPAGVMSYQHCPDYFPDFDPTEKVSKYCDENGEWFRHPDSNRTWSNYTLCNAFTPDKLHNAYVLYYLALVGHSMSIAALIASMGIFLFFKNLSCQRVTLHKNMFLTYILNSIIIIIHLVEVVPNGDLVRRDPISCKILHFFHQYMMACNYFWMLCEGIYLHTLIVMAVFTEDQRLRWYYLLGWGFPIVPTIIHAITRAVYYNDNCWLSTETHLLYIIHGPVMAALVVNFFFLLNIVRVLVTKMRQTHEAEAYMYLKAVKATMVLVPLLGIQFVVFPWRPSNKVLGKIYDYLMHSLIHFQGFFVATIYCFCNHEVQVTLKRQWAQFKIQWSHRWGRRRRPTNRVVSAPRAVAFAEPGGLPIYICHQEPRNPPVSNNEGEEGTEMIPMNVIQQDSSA
T2 sequence (Q9JJ73 24-147 partner limits assumed): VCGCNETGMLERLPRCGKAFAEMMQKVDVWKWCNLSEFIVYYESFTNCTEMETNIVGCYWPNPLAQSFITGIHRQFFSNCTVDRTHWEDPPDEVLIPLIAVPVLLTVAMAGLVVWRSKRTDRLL
The series can be described thus: Assay (II)b functional assay, rat amylin receptor (cAMP FlashPlate). It counts as cell-based. Particulars: Table 11. From the text: Assay (II)b—Rat Calcitonin and Rat Amylin Receptor Assays
Activation of calcitonin and amylin (coexpression of calcitonin receptor and receptor activity modifying proteins (RAMP)) receptors lead to increased intracellular concentrations of cAMP. In order to quantify the cAMP levels in transiently transfected cells the Adenylyl Cyclase Activation FlashPlate® Assay from Perkin Elmer was used. The basic principle of the FlashPlate® Assay is a competition between radioactive and non-radioactive cAMP generated by the cells for a fixed number of binding sites.
Construction of Rat Calcitonin(a)- and Rat Amylin 3(a)-Receptor Cells.
BHK tk'ts 13 cells were transiently transfected with either rat calcitonin (a) receptor or amylin 3 (a) receptor (rat calcitonin(a) receptor+rat RAMP3) using FuGENE® 6 (Roche), according to the manufacturers recommendations.
24 hours after transient transfection the cells (rat calcitonin(a)- or rat amylin 3(a)-receptor cells) were added (100.000 cells/well) to the 96 well FlashPlates® with samples or standard in FlashPlate stimulation buffer with IBMX and incubated for 30 min. Detection mix was created according to manufacturers protocol and scintillation measured after 3 h of incubation on TopCounter™ (Packard).

One compound from patent US8741836B2, “Polypeptides” (Novo Nordisk A/S, priority 2011, dated 2014) can be followed below.

Molecules are shown by their SMILES. Like-named read-outs stand apart in the source and are kept apart here. Starred links: 1 amine or outer side, 2 acyl side, 3 side chain; linkers in the order of their positions; H or OH if unused. Positions of bridges follow the written chain, without caps; N, C: chain ends. Residues, ends and D or L forms follow the SMILES beside them. Groups on a side chain read outwards from the residue. *: point of attachment. C18 diacid = O=C(O)CCCCCCCCCCCCCCCCC(=O)*; γGlu = O=C(O)[C@H](CCC(=O)[*:2])N[*:1]; AEEA = NCCOCCOCC(=O)O

In general, solubility refers to the concentration that dissolves in the medium under given conditions. Broadly, the EC50 is the concentration needed to bring the measured effect to its halfway point. Consider `CC[C@H](C)[C@H](NC(=O)[C@@H]1CCCN1C(=O)CNC(=O)[C@H](Cc1ccccc1)NC(=O)[C@H](CC(N)=O)NC(=O)[C@H](CCCCNC(=O)COCCOCCNC(=O)COCCOCCNC(=O)CC[C@H](NC(=O)CCCCCCCCCCCCCCCCC(=O)O)C(=O)O)NC(=O)[C@H](CO)NC(=O)[C@H](CO)NC(=O)[C@H](Cc1c[nH]cn1)NC(=O)[C@H](Cc1c[nH]cn1)NC(=O)[C@H](CC(C)C)NC(=O)[C@H](Cc1ccccc1)NC(=O)[C@H](CCC(=O)O)NC(=O)[C@H](C)NC(=O)[C@H](CC(C)C)NC(=O)[C@H](CCCNC(=N)N)NC(=O)[C@H](CCC(N)=O)NC(=O)[C@@H](NC(=O)[C@H](C)NC(=O)[C@@H]1CSSC[C@H](NC(=O)[C@@H](N)CCCCN)C(=O)N[C@@H](CC(N)=O)C(=O)N[C@@H]([C@@H](C)O)C(=O)N[C@@H](C)C(=O)N[C@@H]([C@@H](C)O)C(=O)N1)[C@@H](C)O)C(=O)N[C@@H](CC(C)C)C(=O)N1CCC[C@H]1C(=O)N1CCC[C@H]1C(=O)N[C@H](C(=O)N[C@@H](CC(N)=O)C(=O)N[C@H](C(=O)NCC(=O)N[C@@H](CO)C(=O)N[C@@H](CCC(=O)O)C(=O)N[C@H](C(=O)N[C@@H](Cc1ccc(O)cc1)C(N)=O)[C@@H](C)O)C(C)C)[C@@H](C)O` [Example 74, N-epsilon21-[2-(2-{2-[2-(2-{2-[(S)-4-Carboxy-4-(17-carboxyheptadecanoylamino)butyrylamino]ethoxy}ethoxy)acetylamino]ethoxy}ethoxy)acetyl]-[Glu14,His17,Lys21,Glu35]-pramlintide] (H-KCNTATCATQRLAEFLHHSSK([AEEA-AEEA-γGlu-C18 diacid])NFGPILPPTNVGSETY-NH2; disulfide 2-7 (inferred); N-terminus and C-terminus assumed), for which the solubility at 18 h was greater than 200 µM in series [1] (bistrispropane buffer, pH 6.5, read-out: Solubility); greater than 200 µM in series [1] (bistrispropane buffer, pH 7.5, read-out: Solubility pH 7.5); greater than 200 µM in series [1] (bistrispropane buffer, pH 6.0, read-out: Solubility); greater than 200 µM in series [1] (bistrispropane buffer, pH 7.0, read-out: Solubility pH 7.0); greater than 200 µM in series [1] (bistrispropane buffer, pH 8.0, read-out: Solubility); greater than 200 µM in series [1] (glycylglycine buffer, pH 3.0, read-out: Solubility). Also, the solubility at 18 h was greater than 200 µM in series [1] (glycylglycine buffer, pH 4.0, read-out: Solubility pH 4.0); greater than 200 µM in series [1] (glycylglycine buffer, pH 5.0, read-out: Solubility); greater than 200 µM in series [1] (pH 4.0, read-out: Solubility); greater than 200 µM in series [1] (pH 7.0, read-out: Solubility); greater than 200 µM in series [1] (pH 7.5, read-out: Solubility). Also, the EC50 in series [2] (Table 7, human calcitonin (CTa) receptor) came to 0.216 nM; in series [2] (Table 11, human calcitonin receptor, read-out: CTa receptor human EC50) it was 0.216 nM; in series [3] it was 0.504 nM.
